# Tests used:
# CT-DNA = test: Switch-on NIR-fluorescence enhancement with DNA; assay type: binding, Calf
# Experimental: All the chemicals, reagents, single-stranded oligos (dA20, dT20, dG20, dC20), self-complementary oligos {d(ATAT)5, (D1)mix, Drew-AT, Calf-Thymus DNA (CT-DNA), (DM1, DM2, DM3, DM4, DM5, DM6 and DM7)}, RNA, were purchased from Sigma-Aldrich. ^1H and ^13C NMR spectra were recorded on a Bruker AV-400 MHz spectrometer with chemical shifts reported as parts per million (ppm) (in DMSO-d6, tetramethylsilane as an internal standard) at 20° C. UV-vis absorption and emission spectra were measured in quartz cuvettes of 1 cm path length. High resolution mass spectra (HRMS) were obtained on Agilent Technologies 6538 UHD Accurate-Mass Q-TOF LC/MS spectrometer. All biophysical studies (UV-vis, fluorescence and Cirular dichroism) are carried out at the concentration 0-5 μM of probe, volume=500 μL, temperature=25° C. and time of incubation=2 minutes. […]
# The UV-vis absorption and emission spectra are recorded on Agilent Technologies Cary series UV-vis-NIR absorbance and Cary eclipse fluorescence spectrophotometers, respectively. […] Absorption is monitored at 260 nm with regular 5° C. intervals. Melting temperatures (Tm) of DNA samples are calculated from the first derivatives of the absorption vs. temperature curves (thermal denaturation or melting curves) obtained by monitoring at 260 nm. […]
# [1] = Fluorescence quantum yield in absence of DNA; assay type: physicochemical
# Experimental: Cresyl violet perchlorate in ethanol (ϕ=0.54) is used as the standard for the fluorescence quantum yield calculation using the absorption of the test sample. The emission spectral area is obtained in the 550-800 nm regions. Dilute solutions (10^−6 M) are used to minimize reabsorption effects of the dyes. Quantum yields are determined using the following equation, ϕs=ϕr(Fs/Fr)×(Ar/As)×(ns^2/nr^2)
# Where, ϕr and ϕs are the quantum yield of reference and sample respectively, Fr and Fs are the integrated intensities (areas) of standard and sample spectra, nr and ns are the refractive indices of the reference and sample solution, Ar and As are the absorbance intensities of reference and sample respectively.
# DM1 (5′-ATAT-3′) = test: Sequence-specific fluorescence enhancement, variable (A/T)4 core; assay type: binding; conditions: QCy-DT 2 μM, DM1 4 μM
# Experimental: (§1) All the chemicals, reagents, single-stranded oligos (dA20, dT20, dG20, dC20), self-complementary oligos {d(ATAT)5, (D1)mix, Drew-AT, Calf-Thymus DNA (CT-DNA), (DM1, DM2, DM3, DM4, DM5, DM6 and DM7)}, RNA, were purchased from Sigma-Aldrich. ^1H and ^13C NMR spectra were recorded on a Bruker AV-400 MHz spectrometer with chemical shifts reported as parts per million (ppm) (in DMSO-d6, tetramethylsilane as an internal standard) at 20° C. UV-vis absorption and emission spectra were measured in quartz cuvettes of 1 cm path length. High resolution mass spectra (HRMS) were obtained on Agilent Technologies 6538 UHD Accurate-Mass Q-TOF LC/MS spectrometer. All biophysical studies (UV-vis, fluorescence and Cirular dichroism) are carried out at the concentration 0-5 μM of probe, volume=500 μL, temperature=25° C. and time of incubation=2 minutes. HeLa cells and MCF7 cells used in the biological studies are obtained from “Molecular reproduction, development and genetics lab, Indian institute of science, Bangalore, India”
# (§2) Stock solutions of QCy-DT are prepared in double-distilled (dd) water in the order of 10^−3 M and stored at about −10° C. DNA stock solutions are prepared by dissolving oligo samples in double-distilled (dd) water in the order of 10^−4 M. Solutions of DNA duplexes are prepared in Tris-HCl (100 mM, pH=7.4) buffer solution by mixing complementary DNA strands in equimolar concentration. This solution is then subjected to annealing by heating up to about 85° C. for about 15 minutes, subsequently cooled to room temperature for about 7 hours and stored in the refrigerator (about 4° C.) for about 4 hours.
# (§3) The UV-vis absorption and emission spectra are recorded on Agilent Technologies Cary series UV-vis-NIR absorbance and Cary eclipse fluorescence spectrophotometers, respectively. Thermal denaturation (UV-melting) studies are carried out on Cary 5000 UV-vis-NIR spectrophotometer equipped with Cary temperature controller in the range of 10° C. to 90° C. with a ramp rate of 1° C./min. The variable temperature/wavelength mode is used. Absorption is monitored at 260 nm with regular 5° C. intervals. Melting temperatures (Tm) of DNA samples are calculated from the first derivatives of the absorption vs. temperature curves (thermal denaturation or melting curves) obtained by monitoring at 260 nm.
# (§4) Almost about ˜4-folds difference in fluorescence enhancement of QCy-DT in the presence of (A-T)20 compared to self-complementary, alternative AT-base pair containing d(ATAT)5 duplex is observed, although both contain total 20 AT base pairs (FIG. 3 and FIG. 12a). […] There are no NIR-fluorescence probes that sequence-specifically recognize the minor groove of AT-rich DNA. […] Further, QCy-DT detects all AT-rich sequences by showing varied fluorescence/sensitivity. […]
# DM3 (5′-AAAA-3′) = test: as above; assay type: binding; conditions: QCy-DT 2 μM, DM3 4 μM
# Experimental: as §1, §2, §3, §4
# DM4 (5′-AATT-3′) = test: as above; assay type: binding; conditions: QCy-DT 2 μM, DM4 4 μM
# Experimental: as §1, §2, §3, §4
compound,measurement,setting,value
"C[n+]1c(/C=C/c2ccc(O)c(/C=C/c3sc4ccccc4[n+]3C)c2)sc2ccccc21 [QCy-DT, quinone cyanine-dithiazole]",fluorescence enhancement,CT-DNA,~40 fold
same,Quantum Yield (ΦF),[1]; Glycerol,~0.07
same,Quantum Yield (ΦF),"[1]; Tris-HCl buffer 100 mM, pH 7.4, probe alone",0.0039
same,fluorescence enhancement,DM1 (5′-ATAT-3′),~8 fold
same,fluorescence enhancement,DM3 (5′-AAAA-3′),~40 fold
same,fluorescence enhancement,DM4 (5′-AATT-3′),~72 fold

# From US10683273B2, “Compounds as DNA probes, methods and applications thereof” (JAWAHARLAL NEHRU CENTRE FOR ADVANCED SCIENTIFIC RESEARCH, priority 2015, dated 2020)
